Results from ChEMBL document CHEMBL3351251, “3-Arylcoumarins: synthesis and potent anti-inflammatory activity” (Bioorg Med Chem Lett, 2014).
Each block holds one compound with its values, some of them ahead of it.

Legend:
RAW264.7 [1] = assay: Anti-inflammatory activity in mouse RAW264.7 cells assessed as inhibition of LPS-induced nitric oxide production at 5 mg/L pre-incubated for 2 hrs before LPS stimulation for 24 hrs; assay type: functional
[2] = Cytotoxicity against LPS-stimulated mouse RAW264.7 cells assessed as cell viability at 5 mg/L incubated for 24 hrs by alamar blue assay; assay type: cell-based; conditions: LPS-stimulated RAW264.7 cells, read-out: Activity
RAW264.7 [3] = assay: Anti-inflammatory activity in mouse RAW264.7 cells assessed as inhibition of LPS-induced nitric oxide production pre-incubated for 2 hrs before LPS stimulation for 24 hrs; assay type: functional, cell-based

SMILES: COc1ccc(-c2cc3cc(Cl)cc(Cl)c3oc2=O)cc1OC
inhibition at 5 µg/mL (RAW264.7 [1]): 27.3%
viability at 24 h, 5 mg/L [2]: 118%

SMILES: COc1ccc(OC)c(-c2cc3cc(Br)cc(OC)c3oc2=O)c1
inhibition at 5 µg/mL (RAW264.7 [1]): 45.9%
viability at 24 h, 5 mg/L [2]: 93.5%

SMILES: COc1cccc(-c2cc3ccccc3oc2=O)c1
inhibition at 5 µg/mL (RAW264.7 [1]): 49.2%
viability at 24 h, 5 mg/L [2]: 48.4%

SMILES: O=c1oc2c(Cl)cc(Cl)cc2cc1-c1ccccc1
inhibition at 5 µg/mL (RAW264.7 [1]): 53.4%
viability at 24 h, 5 mg/L [2]: 104%

SMILES: COc1ccc(-c2cc3cccc(OC)c3oc2=O)cc1
inhibition at 5 µg/mL (RAW264.7 [1]): 44.6%
viability at 24 h, 5 mg/L [2]: 81.3%

SMILES: COc1ccc(-c2cc3cc(Cl)cc(Cl)c3oc2=O)cc1
inhibition at 5 µg/mL (RAW264.7 [1]): 20.8%
viability at 24 h, 5 mg/L [2]: 99.3%

SMILES: COc1ccc(-c2cc3cccc(OC)c3oc2=O)cc1OC
inhibition at 5 µg/mL (RAW264.7 [1]): 32.3%
viability at 24 h, 5 mg/L [2]: 87.7%

IC50 (RAW264.7 [3]): 6.2 µM
SMILES: COc1cc(/C=C/C(=O)CC(=O)/C=C/c2ccc(O)c(OC)c2)ccc1O [CURCUMIN]
inhibition at 5 µg/mL (RAW264.7 [1]): 77%

SMILES: COc1cc(Br)cc2cc(-c3cccc(OC(C)=O)c3)c(=O)oc12
inhibition at 5 µg/mL (RAW264.7 [1]): 84.1%
viability at 24 h, 5 mg/L [2]: 66.5%

SMILES: O=c1oc2ccccc2cc1-c1ccc(F)cc1
inhibition at 5 µg/mL (RAW264.7 [1]): 9.98%
viability at 24 h, 5 mg/L [2]: 110%

SMILES: O=c1oc2ccc(Cl)cc2cc1-c1ccc(Cl)cc1
inhibition at 5 µg/mL (RAW264.7 [1]): 12.1%
viability at 24 h, 5 mg/L [2]: 114%

SMILES: COc1cc(-c2cc3cc(Br)cc(OC)c3oc2=O)cc(OC)c1OC
inhibition at 5 µg/mL (RAW264.7 [1]): 47.3%
viability at 24 h, 5 mg/L [2]: 115%

SMILES: COc1ccc(-c2cc3cc(Cl)ccc3oc2=O)cc1
inhibition at 5 µg/mL (RAW264.7 [1]): 47.5%
viability at 24 h, 5 mg/L [2]: 102%

SMILES: COc1ccccc1-c1cc2cc(Cl)ccc2oc1=O
inhibition at 5 µg/mL (RAW264.7 [1]): 65.7%
viability at 24 h, 5 mg/L [2]: 115%

SMILES: COc1ccccc1-c1cc2cc(Br)cc(OC)c2oc1=O
inhibition at 5 µg/mL (RAW264.7 [1]): 47.6%
viability at 24 h, 5 mg/L [2]: 95.7%

SMILES: COc1cc(Br)cc2cc(-c3cccnc3)c(=O)oc12
inhibition at 5 µg/mL (RAW264.7 [1]): 58.6%
viability at 24 h, 5 mg/L [2]: 84.9%

SMILES: COc1cc(Br)cc2cc(-c3cccc(O)c3)c(=O)oc12
inhibition at 5 µg/mL (RAW264.7 [1]): 116%
viability at 24 h, 5 mg/L [2]: 28.5%

SMILES: COc1ccc(-c2cc3ccccc3oc2=O)cc1OC
inhibition at 5 µg/mL (RAW264.7 [1]): 47.4%
viability at 24 h, 5 mg/L [2]: 47%

SMILES: COc1cccc2cc(-c3ccc(F)cc3)c(=O)oc12
inhibition at 5 µg/mL (RAW264.7 [1]): 47.6%
viability at 24 h, 5 mg/L [2]: 127%

SMILES: COc1cccc(-c2cc3cccc(OC)c3oc2=O)c1
inhibition at 5 µg/mL (RAW264.7 [1]): 91.4%
viability at 24 h, 5 mg/L [2]: 34.2%

SMILES: COc1cc(-c2cc3cc(Cl)ccc3oc2=O)cc(OC)c1OC
inhibition at 5 µg/mL (RAW264.7 [1]): 57.6%
viability at 24 h, 5 mg/L [2]: 78.4%

SMILES: O=c1oc2ccccc2cc1-c1ccccc1
inhibition at 5 µg/mL (RAW264.7 [1]): 69.5%
viability at 24 h, 5 mg/L [2]: 104%

SMILES: COc1cc(Br)cc2cc(-c3ccccc3)c(=O)oc12
inhibition at 5 µg/mL (RAW264.7 [1]): 111%
viability at 24 h, 5 mg/L [2]: 29.6%

SMILES: COc1ccc(-c2cc3cc(Cl)ccc3oc2=O)cc1OC
inhibition at 5 µg/mL (RAW264.7 [1]): 31.2%
viability at 24 h, 5 mg/L [2]: 105%

SMILES: COc1ccc(-c2cc3cc(Br)cc(OC)c3oc2=O)cc1
inhibition at 5 µg/mL (RAW264.7 [1]): 44.2%
viability at 24 h, 5 mg/L [2]: 99.9%

SMILES: COc1cc(Br)cc2cc(-c3ccc(O)cc3)c(=O)oc12
inhibition at 5 µg/mL (RAW264.7 [1]): 91.3%
viability at 24 h, 5 mg/L [2]: 24.4%

IC50 (RAW264.7 [3]): 6.9 µM
SMILES: COc1cccc(-c2cc3cc(Br)cc(OC)c3oc2=O)c1
inhibition at 5 µg/mL (RAW264.7 [1]): 72.3%
viability at 24 h, 5 mg/L [2]: 116%

IC50 (RAW264.7 [3]): 8.5 µM
SMILES: COc1ccccc1-c1cc2cc(Cl)cc(Cl)c2oc1=O
inhibition at 5 µg/mL (RAW264.7 [1]): 76.9%
viability at 24 h, 5 mg/L [2]: 119%

SMILES: COc1cc(Br)cc2cc(-c3ccc(F)cc3)c(=O)oc12
inhibition at 5 µg/mL (RAW264.7 [1]): 33.9%
viability at 24 h, 5 mg/L [2]: 103%

SMILES: COc1cccc2cc(-c3ccccc3)c(=O)oc12
inhibition at 5 µg/mL (RAW264.7 [1]): 78.4%
viability at 24 h, 5 mg/L [2]: 64.5%

SMILES: COc1cc(-c2cc3cccc(OC)c3oc2=O)cc(OC)c1OC
inhibition at 5 µg/mL (RAW264.7 [1]): 52%
viability at 24 h, 5 mg/L [2]: 54.4%

SMILES: COc1cccc(-c2cc3cc(Cl)cc(Cl)c3oc2=O)c1
inhibition at 5 µg/mL (RAW264.7 [1]): 36%
viability at 24 h, 5 mg/L [2]: 105%

SMILES: COc1ccc(-c2cc3cc(Br)cc(OC)c3oc2=O)cc1OC
inhibition at 5 µg/mL (RAW264.7 [1]): 53.5%
viability at 24 h, 5 mg/L [2]: 98%

SMILES: COc1cccc2cc(-c3ccc(Cl)cc3)c(=O)oc12
inhibition at 5 µg/mL (RAW264.7 [1]): 61.7%
viability at 24 h, 5 mg/L [2]: 93.5%

SMILES: COc1ccc(-c2cc3ccccc3oc2=O)cc1
inhibition at 5 µg/mL (RAW264.7 [1]): 59.6%
viability at 24 h, 5 mg/L [2]: 93.4%

SMILES: COc1cc(Br)cc2cc(-c3ccc(OC(C)=O)cc3)c(=O)oc12
inhibition at 5 µg/mL (RAW264.7 [1]): 77.8%
viability at 24 h, 5 mg/L [2]: 61.7%
